Assay results: patent publication US12441733B2, “Substituted 2,4-dioxotetrahydropyrimidines as intermediates in the synthesis of bruton's tyrosine kinase inhibitors” (Novartis AG, priority 2018, dated 2025)

Target: T1, BTK-GFP (Homo sapiens, UniProt Q06187+Q96SW2)
T1 construct: expressed in transfected cells; host or cells: HEK293A (Invitrogen R70507), lentiviral transduction with pLenti6-BTK-GFP-Ires-RFP, blasticidin selection
Assay: BTK-GFP protein abundance flow cytometry assay in HEK293A cells
Format: cell-based
Conditions: HEK293A BTK-GFP-iresRFP cells, 24 h; for DC50: GFP signal by flow cytometry, concentration at which 50% maximal degradation was observed; for BTK deg Amax: % protein remaining at the concentration at which maximum degradation is seen
Summary of the method: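 HEK293A cells stably expressing bicistronic BTK-GFP-IRES-RFP (C-terminal GFP tag) via lentiviral vector. Degradation read by flow cytometry as loss of GFP signal after degrader treatment. DC50 is concentration giving 50% maximal degradation; Amax is % protein remaining at maximal degradation.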

T1 sequence (Q06187 whole entry): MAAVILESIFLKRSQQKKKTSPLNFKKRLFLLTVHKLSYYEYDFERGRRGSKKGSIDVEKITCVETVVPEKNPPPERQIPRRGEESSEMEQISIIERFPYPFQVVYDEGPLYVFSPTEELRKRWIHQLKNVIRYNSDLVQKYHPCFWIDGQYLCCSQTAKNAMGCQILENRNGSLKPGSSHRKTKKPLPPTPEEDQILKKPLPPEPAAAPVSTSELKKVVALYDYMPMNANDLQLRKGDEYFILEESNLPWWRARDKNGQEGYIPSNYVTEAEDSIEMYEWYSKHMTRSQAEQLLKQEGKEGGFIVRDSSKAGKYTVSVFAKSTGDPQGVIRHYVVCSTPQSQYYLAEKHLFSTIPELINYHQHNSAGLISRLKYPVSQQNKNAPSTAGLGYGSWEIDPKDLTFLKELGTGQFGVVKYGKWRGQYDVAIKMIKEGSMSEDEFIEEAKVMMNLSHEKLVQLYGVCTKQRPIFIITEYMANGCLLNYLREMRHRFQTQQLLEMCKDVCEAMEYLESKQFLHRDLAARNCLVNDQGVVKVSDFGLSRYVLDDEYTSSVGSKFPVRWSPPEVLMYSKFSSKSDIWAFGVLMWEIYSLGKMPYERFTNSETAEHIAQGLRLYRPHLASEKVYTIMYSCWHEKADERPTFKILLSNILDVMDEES
T1 sequence (Q96SW2 whole entry): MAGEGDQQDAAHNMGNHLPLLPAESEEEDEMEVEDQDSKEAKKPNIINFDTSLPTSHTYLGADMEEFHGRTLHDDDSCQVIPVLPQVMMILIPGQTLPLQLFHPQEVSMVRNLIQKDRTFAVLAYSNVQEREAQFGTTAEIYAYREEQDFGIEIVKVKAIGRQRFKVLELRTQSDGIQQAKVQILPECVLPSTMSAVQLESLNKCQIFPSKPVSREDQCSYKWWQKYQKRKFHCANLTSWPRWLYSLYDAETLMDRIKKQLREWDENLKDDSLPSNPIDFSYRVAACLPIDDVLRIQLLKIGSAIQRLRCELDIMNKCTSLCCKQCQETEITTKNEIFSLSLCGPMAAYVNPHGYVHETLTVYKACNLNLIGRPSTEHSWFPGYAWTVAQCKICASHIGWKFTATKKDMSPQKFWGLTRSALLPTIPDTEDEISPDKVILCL
T1 sequence (Q16531 whole entry partner): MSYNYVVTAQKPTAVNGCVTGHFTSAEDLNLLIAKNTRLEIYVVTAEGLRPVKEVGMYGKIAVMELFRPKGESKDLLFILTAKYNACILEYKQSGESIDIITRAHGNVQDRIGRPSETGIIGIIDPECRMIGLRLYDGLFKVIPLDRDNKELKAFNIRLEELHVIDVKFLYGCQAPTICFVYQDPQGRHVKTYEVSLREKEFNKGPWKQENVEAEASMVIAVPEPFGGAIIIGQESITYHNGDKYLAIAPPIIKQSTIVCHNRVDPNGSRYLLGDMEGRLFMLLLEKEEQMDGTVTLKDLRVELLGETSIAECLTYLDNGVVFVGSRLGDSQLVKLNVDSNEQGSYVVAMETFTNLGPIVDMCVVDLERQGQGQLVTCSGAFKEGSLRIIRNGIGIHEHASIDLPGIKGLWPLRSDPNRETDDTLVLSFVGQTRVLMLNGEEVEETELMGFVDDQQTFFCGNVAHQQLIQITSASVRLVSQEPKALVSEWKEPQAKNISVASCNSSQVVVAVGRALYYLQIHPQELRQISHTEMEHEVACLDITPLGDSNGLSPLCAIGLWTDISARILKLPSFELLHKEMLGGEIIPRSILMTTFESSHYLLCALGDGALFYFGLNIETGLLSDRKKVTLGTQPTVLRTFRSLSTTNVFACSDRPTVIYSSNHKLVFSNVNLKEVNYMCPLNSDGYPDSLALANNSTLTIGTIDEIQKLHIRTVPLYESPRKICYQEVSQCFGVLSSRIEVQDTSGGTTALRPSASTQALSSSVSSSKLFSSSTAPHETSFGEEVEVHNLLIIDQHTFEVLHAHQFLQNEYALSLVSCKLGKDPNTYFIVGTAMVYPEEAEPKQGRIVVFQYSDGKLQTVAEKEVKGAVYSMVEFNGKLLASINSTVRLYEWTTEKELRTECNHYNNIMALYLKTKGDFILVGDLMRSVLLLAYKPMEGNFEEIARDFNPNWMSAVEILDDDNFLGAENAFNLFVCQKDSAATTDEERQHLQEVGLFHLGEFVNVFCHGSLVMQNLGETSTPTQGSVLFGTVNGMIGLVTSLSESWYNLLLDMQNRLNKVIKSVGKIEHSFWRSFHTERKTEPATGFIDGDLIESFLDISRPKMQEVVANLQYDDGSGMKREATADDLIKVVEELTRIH

Structure (SMILES)	DC50	BTK deg Amax
COc1ccc(C(=O)N2CCC3(CCN(Cc4ccc(-c5cc6c(-c7cc(F)cc(NC(=O)c8ccc(C(C)(C)O)cc8F)c7C)ncnc6[nH]5)cc4)CC3)CC2)cc1N1CCC(=O)NC1=O [Compound 9, N-(3-(6-(4-((9-(3-(2,4-Dioxotetrahydropyrimidin-1(2H)-yl)-4-methoxybenzoyl)-3,9-diazaspiro[5.5]undecan-3-yl)methyl)phenyl)-7H-pyrrolo[2.3-d]pyrimidin-4-yl)-5-fluoro-2-methylphenyl)-2-fluoro-4-(2-hydroxypropan-2-yl)benzamide]	2.1 nM	4.5%
Cc1ccc(C(=O)N2CCC3(CCN(CCc4ccc(-c5cc6c(-c7cc(F)cc(NC(=O)c8ccc(C(C)(C)O)cc8F)c7C)ncnc6[nH]5)cc4)CC3)CC2)cc1N1CCC(=O)NC1=O [Compound 5, N-(3-(6-(4-(2-(9-(3-(2,4-Dioxotetrahydropyrimidin-1(2H)-yl)-4-methylbenzoyl)-3,9-diazaspiro[5.5]undecan-3-yl)ethyl)phenyl)-7H-pyrrolo[2,3-d]pyrimidin-4-yl)-5-fluoro-2-methylphenyl)-2-fluoro-4-(2-hydroxypropan-2-yl)benzamide]	1 nM	3.1%
Cc1c(NC(=O)c2ccc(C(C)(C)O)cc2F)cc(F)cc1-c1ncnc2[nH]c(-c3ccc(COC4CCN(CCC5CCN(C(=O)c6ccc(F)c(N7CCC(=O)NC7=O)c6)CC5)CC4)cc3)cc12 [Compound 6, N-(3-(6-(4-(((1-(2(1-(3-(2,4-dioxotetrahydropyrimidin-1(2H)-yl)-4-fluorobenzoyl)piperidin-4-yl)ethyl)piperidin-4-yl)oxyl)methyl)phenyl)-7H-pyrrolo[2,3-d]pyrimidin-4-yl)-5-fluoro-2-methylphenyl)-2-fluoro-4-(2-hydroxypropan-2-yl)benzamide]	0.7 nM	4.1%
COc1ccc(C(=O)N2CCC3(CC2)CCN(C(C)(C)Cc2ccc(-c4cc5c(-c6cc(F)cc(NC(=O)c7ccc(C(C)(C)O)cc7F)c6C)ncnc5[nH]4)cc2)CC3)cc1N1CCC(=O)NC1=O [Compound 20, N-(3-(6-(4-(2-(9-(3-(2,4-Dioxotetrahydropyrimidin-1(2H)-yl)-4-methoxybenzoyl)-3,9-diazaspiro[5.5]undecan-3-yl)-2-methylpropyl)phenyl)-7H-pyrrolo[2,3-d]pyrimidin-4-yl)-5-fluoro-2-methylphenyl)-2-fluoro-4-(2-hydroxypropan-2-yl)benzamide]	2 nM	1.1%
Cc1cc(F)c(C(=O)NCCCCCNCc2ccc(-c3cc4c(-c5cc(F)cc(NC(=O)c6ccc(C(C)(C)O)cc6F)c5C)ncnc4[nH]3)cc2)cc1N1CCC(=O)NC1=O [Compound 29, 5-(2,4-Dioxotetrahydropyrimidin-1(2H)-yl)-2-fluoro-N—(S-((4-(4-(5-fluoro-3-(2-fluoro-4-(2-hydroxypropan-2-yl)benzamido)-2-methylphenyl)-7H-pyrrolo[2,3-d]pyrimidin-6-yl)benzyl)amino)pentyl)-4-methylbenzamide]	19.9 nM	3.1%
COc1ccc(C(=O)NCCN2CCOC3(CCN(Cc4ccc(-c5cc6c(-c7cc(F)cc(NC(=O)c8ccc(C(C)(C)O)cc8F)c7C)ncnc6[nH]5)cc4)CC3)C2)cc1N1CCC(=O)NC1=O [Compound 39, N-(3-(6-(4-((4-(2-(3-(2,4-dioxotetrahydropyrimidin-1(2H)-yl)-4-methoxybenzamido)ethyl)-1-oxa-4,9-diazaspiro[5.5]undecan-9-yl)methyl)phenyl)-7H-pyrrolo[2,3-d]pyrimidin-4-yl)-5-fluoro-2-methylphenyl)-2-fluoro-4-(2-hydroxypropan-2-yl)benzamide]	149 nM	12.7%
